Measurements: BindingDB's records for PubMed 33721669 (National Institute of Pharmaceutical Education and Research …, 2021)

Tests used:
[1] = target: Cyclin-dependent kinase 2 (Homo sapiens, UniProt P24941); experiment: Inhibition of CDK2 (unknown origin)
[2] = Inhibition of VEGFR-2 (unknown origin) induced tube formation in HUVECs cocultured with fibroblasts measured after 11 days with media renewing every 3 days by staining based analysis
[3] = Inhibition of PDK1 (unknown origin) by SelectScreen kinase assay

IC50 [1]	Compound	also measured
53 nM	COc1ccc2c(c1)/C(=N/NC(=O)c1cc3cc(Br)ccc3o1)C(=O)N2	–
38 nM	O=C1Nc2ccc(Br)cc2/C1=N/NC(=O)c1cc2cc(Br)ccc2o1	–
–	CCN(CC)CCN1Cc2[nH]c(/C=C3\C(=O)Nc4ccc(Br)cc43)c(C)c2C1=O	IC50 [2]: 179 nM
–	COc1cc2c(cc1OC)CN(CC(=O)Nc1ccc3c(c1)/C(=C/c1cnc[nH]1)C(=O)N3)CC2	IC50 [3]: 98000 nM
